Where “and” joins values, the source holds several entries; their conditions need not be identical. Identical values can stand only once. Like-named read-outs stand apart in the source and are kept apart here.
Tests used:
MC1-R [1] = target: T1, MC1-R; assay: Competitive inhibition assay using [I125]-NDP-α-MSH, MC1-R membranes; assay type: binding, mouse; conditions: for Inhibition at 1 μM (NDP-α-MSH) MC1-R: 1 μM compound
T1 construct: other: 1 μM compound
Experimental: (§1) Competitive inhibition assay using [1125]-NDP-α-MSH. A competitive inhibition binding assay was conducted using membranes prepared from HEK-293 cells transfected to express hMC3-R, hMC4-R or hMC5-R, and from B-16 mouse melanoma cells (containing MC1-R) using 0.2 to 0.4 nM [I^125]-NDP-α-MSH (New England Nuclear) in 50 mM HEPES buffer containing 1 mM MgCl2, 2 mM CaCl2, and 5 mM KCl, at pH 7.2. In certain experiments, HEK-293 cells transfected to express hMC1-R were also employed. The assay tube also contained a chosen concentration of the test compound of this invention, typically a 1 μM concentration, for determining inhibition of the binding of [^1125]-NDP-α-MSH to its receptor. Non-specific binding was measured by inhibition of binding of [I^125]-NDP-α-MSH in the assay with the presence of 1 μM α-MSH.
(§2) The assay mixture was incubated for 90 minutes at room temperature, then filtered and the membranes washed three times with ice cold buffer. The filter was dried and counted in a gamma counter for remaining radioactivity bound to the membranes. 100% specific binding was defined as the difference in radioactivity (cpm) bound to cell membranes in the absence and presence of 1 μM α-MSH. The cpm obtained in presence of test compounds were normalized with respect to 100% specific binding to determine the percent inhibition of [125]-NDP-α-MSH binding. Each assay was conducted in triplicate and the actual mean values are described, with results less than 0% reported as 0%.

hMC3-R [2] = target: T2, hMC3-R; assay: Competitive inhibition assay using [I125]-NDP-α-MSH, hMC3-R membranes; assay type: binding, human; conditions: for Ki: read-out: Ki (nM) (NDP-α-MSH) MC3-R
T2 construct: expressed in transfected cells; host or cells: HEK-293
Experimental: as §1, §2

hMC4-R [3] = system: T3, hMC4-R; assay: Competitive inhibition assay using [I125]-NDP-α-MSH, hMC4-R membranes; assay type: binding, human; conditions: for Inhibition at 1 μM (NDP-α-MSH) MC4-R: 1 μM compound; for attenuation of binding of α-MSH and AgRP to MC4-R: both ligands (NDP-α-MSH and AgRP), summary
T3 construct: expressed in transfected cells; host or cells: HEK-293
Experimental: as §1, §2

hMC5-R [4] = target: T4, hMC5-R; assay: Competitive inhibition assay using [I125]-NDP-α-MSH, hMC5-R membranes; assay type: binding, human; conditions: for Ki: read-out: Ki (nM) (NDP-α-MSH) MC5-R
T4 construct: expressed in transfected cells; host or cells: HEK-293
Experimental: as §1, §2

hMC4-R [5] = target: T3, hMC4-R; assay type: binding, human; conditions: for Inhibition at 1 μM (AgRP) MC4-R: 1 μM compound
Experimental: Competitive binding assay using [I^125]-AgRP (83-132). Competitive binding studies using [I^125]-AgRP (83-132) were carried out on membranes isolated from cells expressing hMC4-R. The assay was performed in 96 well GF/B Millipore multiscreen filtration plates (MAFB NOB10) pre-coated with 0.5% bovine serum albumin (Fraction V). The assay mixture contained 25 mM HEPES buffer (pH 7.5) with 100 mM NaCl, 2 mM CaCl2, 2 mM MgCl2, 0.3 mM 1,10-phenanthroline, 0.5% bovine serum albumin, cell membranes, radioligand [I^125]-AgRP (83-132) (NEN), and increasing concentrations of compounds in a total volume of 200 μL. Binding was measured at radioligand concentrations of 0.2 nM. After incubating for 1 hour at 37° C., the reaction mixture was filtered and washed with an assay buffer containing 500 mM NaCl. The dried discs were punched out from the plate and counted on a gamma counter. Care was taken to limit the specific binding of the ligand to an amount not exceeding 10% of the counts added to the reaction mixture. Data were analyzed using the Prism Graph-Pad curve fitting software.

hMC4-R [6] = system: T3, hMC4-R; assay: cAMP functional assay in HEK-293 cells expressing MC4-R (agonist, neutral antagonist/Schild); assay type: cell-based, human; conditions: for intrinsic activity at MC4-R: NDP-α-MSH maximal stimulation = 1.0; for functional status at MC4-R: mostly at 1 μM
Experimental: (§3) General method for EC50 determination in functional activity assay. Functional evaluation of compounds at melanocortin receptors was performed by measuring the accumulation of intracellular cAMP in HEK-293 cells expressing hMC3-R, hMC4-R or hMC5-R, and in B-16 mouse melanoma cells expressing MC1-R. Cells suspended in Earle's Balanced Salt Solution containing 10 mM HEPES (pH 7.5), 5 mM MgCl2, 1 mM glutamine, 0.1% albumin and 0.6 mM 3-isobutyl-1-methyl-xanthine, a phosphodiesterase inhibitor, were plated in 96 well plates at a density of 0.5×10^5 cells per well. Cells were incubated with the test compounds in the presence or absence of α-MSH for 1 hour at 37° C. cAMP levels in the cell lysates were measured using an EIA kit (Amersham). Data analysis and EC50 values were determined using nonlinear regression analysis with Prism Graph-Pad software.
(§4) Functional status. The agonist/antagonist status with respect to MC1-R, MC-3R, MC4-R and MC5-R of certain compounds of the invention was determined.
Assay for agonist. Evaluation of the molecules to elicit a functional response in HEK-293 cells expressing MC4-R was accomplished by measuring the accumulation of intracellular cAMP following treatment. Confluent HEK-293 cells expressing MC4-R were detached by enzyme free cell suspension buffer. Cells were suspended in Earle's Balanced Salt Solution containing 10 mM HEPES (pH 7.5), 1 mM MgCl2, 1 mM glutamine, 0.5% albumin and 0.3 mM 3-isobutyl-1-methyl-xanthine (IBMX), a phosphodiesterase inhibitor. The cells were plated in 96 well plates at a density of 0.5×10^5 cells per well and pre-incubated for 30 minutes. The cells were then challenged with the test compounds dissolved in DMSO at a concentration range of 0.05-5000 nM in a total assay volume of 200 μL for 1 hour at 37° C. The concentration of DMSO was always held at 1% in the assay mixture. NDP-α-MSH was used as the reference agonist. At the end of the incubation period the cells were disrupted by the addition of 50 μL of lysis buffer from a cAMP EIA kit (Amersham). Complete rupture of the cells was obtained by pipetting the cells multiple times. cAMP levels in the cell lysates were measured after appropriate dilution using the EIA kit (Amersham) method. Data analysis and EC50 values were determined by using nonlinear regression analysis with Prism Graph-Pad software. […] FIG. 1 illustrates typical results, showing the stimulation of cAMP using the compound of Example 11 in HEK-293/MC4-R cells with comparison to NDP-α-MSH.
Assay for Neutral Antagonist. Compounds with a high affinity for binding to MC4-R membranes but with less potency in terms of cAMP accumulation (EC50>1000 nM) and low response ratio (<0.1) were analyzed for their ability to antagonize the stimulatory effect of the agonist NDP-α-MSH. These studies were carried out in HEK-293 cells expressing MC4-R. Cells were incubated with the compounds in the presence of the agonist NDP-α-MSH and the extent of antagonism was measured by the decrease in intracellular cAMP concentrations. Screening the compounds for antagonist activity was performed at a single concentration of NDP-α-MSH (1.0 nM) over a compound concentration range of 0.5-5000 nM.
Experimental details were similar to the analysis for agonistic activity described above. Briefly, cells were pre-incubated for 30 minutes with the test compounds at concentrations between 0.5 nM and 5000 nM. The cells were then stimulated with NDP-α-MSH at a concentration of 1 nM for 1 hour. For Schild's analysis, the interactions were studied using at least 3 concentrations of the compounds, separated by a log unit, over a full range of the agonist (0.005-5000 nM). cAMP levels were measured in the cell lysates after appropriate dilution. Nonlinear regression analysis with Prism Graph-Pad software was used for Schild analysis and to obtain EC50 values. pA2 values were derived from the Schild plot of the data.

MC1-R [7] = system: T5, MC1-R; assay: cAMP functional assay, B-16 mouse melanoma cells expressing MC1-R; assay type: cell-based; conditions: cAMP assay at 1 μM
T5 construct: from B-16 mouse melanoma cells (containing MC1-R); endogenous in cells; host or cells: B-16 mouse melanoma cells
Experimental: as §3, §4

hMC5-R [8] = system: T4, hMC5-R; assay: cAMP functional assay, HEK-293 cells expressing hMC5-R; assay type: cell-based, human; conditions: cAMP assay at 1 μM
Experimental: as §3, §4

hMC3-R [9] = system: T2, hMC3-R; assay: cAMP functional assay, HEK-293 cells expressing hMC3-R; assay type: cell-based, human; conditions: cAMP assay at 1 μM
Experimental: as §3, §4

[10] = MC4-R membranes, Table 1, read-out: Ki (nM) I125-NPD-α-MSH
[11] = read-out: Ki (nM) (NDP-α-MSH) MC4-R
[12] = MC4-R membranes, Table 1, read-out: Ki (nM) I125-AgRP
[13] = cAMP assay, read-out: EC50 (nM) at MC4-R

Row | Compound | Ki (MC1-R [1]) [nM] | Inhibition at 1 μM (NDP-α-MSH) MC1-R (MC1-R [1]) [%] | Ki (hMC3-R [2]) [nM] | Inhibition at 1 μM (NDP-α-MSH) MC4-R (hMC4-R [3]) [%] | Ki (hMC4-R [3]; [10]) [nM] | attenuation of binding of α-MSH and AgRP to MC4-R (hMC4-R [3]) | Ki (hMC4-R [3]; [11]) [nM] | Ki (hMC5-R [4]) [nM] | Ki (hMC4-R [5]; [12]) [nM] | Ki (hMC4-R [5]; read-out: Ki (nM) (AgRP) MC4-R) | functional status (pAg, Ag, Antag, Inactive) (hMC4-R [6]; MC4-R, Table 1) | EC50 (hMC4-R [6]; MC4-R, Table 1, read-out: EC50) [nM] | intrinsic activity at MC4-R (hMC4-R [6]) | EC50 (hMC4-R [6]; [13]) [nM] | functional status at MC1-R (MC1-R [7]) | functional status at MC5-R (hMC5-R [8]) | Inhibition at 1 μM (AgRP) MC4-R (hMC4-R [5]) [%] | functional status at MC4-R (hMC4-R [6]; cAMP assay) | functional status at MC3-R (hMC3-R [9]) | further results
1 | N=C(N)NCCC[C@H]1C(=O)N(CCc2c[nH]c3ccccc23)CCN1C(=O)[C@H](N)Cc1ccc(Cl)cc1Cl [Example 2, N-(3-{(S)-1-[(R)-2-Amino-3-(2,4-dichloro-phenyl)-propionyl]-4-[2-(1H-indol-3-yl)-ethyl]-3-oxo-piperazin-2-yl}-propyl)-guanidine] | 1410 | 7 | 533 | 96 | 15 | attenuate the binding of both α-MSH and AgRP to MC4-R | 15 | 1580 | 38 | 38 | pAg (“pAg” means partial agonist) | 604 | 0.3 | 604 | partial agonist (intrinsic activity between 0.1 (10%) and 0.7 (70%) is classified as a partial agonist) | partial agonist (intrinsic activity between 0.1 (10%) and 0.7 (70%) is classified as a partial agonist) | – | – | – | –
2 | CC(C)C[C@H]1CN(C(=O)[C@H](N)Cc2ccc(Cl)cc2Cl)[C@@H](CCCNC(=N)N)CN1CCc1ccc2ccccc2c1 [Example 3, N-{3-[1-[2(R)-Amino-3-(2,4-dichloro-phenyl)-propionyl]-5(S)-isobutyl-4-(2-naphthalen-2-yl-ethyl)-piperazin-2(S)-yl]-propyl}-guanidine] | 5900 | 4 | 495 | 95 | 48 | – | 48 | 698 | 39 | 39 | Inactive | – | no intrinsic activity | – | partial agonist (intrinsic activity between 0.1 (10%) and 0.7 (70%) is classified as a partial agonist) | partial agonist (intrinsic activity between 0.1 (10%) and 0.7 (70%) is classified as a partial agonist) | 91 | inactive | – | Inhibition at 1 μM (NDP-α-MSH) MC3-R (hMC3-R [2]; 1 μM compound): 16%; Inhibition at 1 μM (NDP-α-MSH) MC5-R (hMC5-R [4]; 1 μM compound): 28%
3 | Cc1ccc(CCN2C[C@H](CCCNC(=N)N)N(C(=O)[C@H](N)Cc3ccc4ccccc4c3)C[C@H]2C)cc1 [Example 5, N-{3-[1-(2(R)-Amino-3-naphthalen-2-yl-propionyl)-5(R)-methyl-4-(2-p-tolyl-ethyl)-piperazin-2(S)-yl]-propyl}-guanidine] | 135 | 32 | 164 | – | 29 | attenuate the binding of both α-MSH and AgRP to MC4-R | 29 | 448 | 42 | 42 | pAg (“pAg” means partial agonist) | 370 | 0.6 | 370 | partial agonist (intrinsic activity between 0.1 (10%) and 0.7 (70%) is classified as a partial agonist) | partial agonist (intrinsic activity between 0.1 (10%) and 0.7 (70%) is classified as a partial agonist) | 93 | – | no intrinsic activity (intrinsic activity below 0.1 (10%) is classified as inactive or having no intrinsic activity) | –
4 | C[C@@H]1CN(C(=O)[C@H](N)Cc2ccc(Cl)cc2Cl)[C@@H](CCCNC(=N)N)CN1CCc1ccc2ccccc2c1 [Example 12, N-{3-[1-[2(R)-Amino-3-(2,4-dichloro-phenyl)-propionyl]-5(R)-methyl-4-(2-naphthalen-2-yl-ethyl)-piperazin-2(S)-yl]-propyl}-guanidine] | 1130 | 20 | – | 99 | – | – | – | – | – | – | Antag (“Antag” means antagonist) | – | – | – | inactive | inactive | – | antagonist | inactive | pA2 value at MC4-R (hMC4-R [6]; Schild plot vs NDP-α-MSH): 7.52 and 7.7
5 | NH2—(CH2)6—C(═O)-Ser(Bzl)-D-Phe(4-Cl)-Arg-Trp-Asp-NH2 [Example 14] | 760 | 35 | 180 | – | – | – | – | – | – | – | pAg (“pAg” means partial agonist) | 568 | 0.5 | 568 | inactive | inactive | – | partial agonist (intrinsic activity between 0.1 (10%) and 0.7 (70%) is classified as a partial agonist) | partial agonist (intrinsic activity between 0.1 (10%) and 0.7 (70%) is classified as a partial agonist) | –

— patent US20090076029A1 (Palatin Technologies, Inc., priority 2007, published 2009)
